pIC50: −log10 of the molar value.
What was measured:
[1] = target: T1, HCV polymerase (NS5B) type 1a (Hepatitis C virus genotype 1a, UniProt P26664); experiment: Assay of enzyme (HCV polymerase) inhibitory activity, type 1a enzyme; type: biochemical, HCV type 1a (cloned from the blood of patients); conditions: HCV polymerase inhibitory activity (IC50), 1a, type 1a enzyme 1.5 μg/ml, 25° C., 60 min
T1 construct: made in house; host or cells: Escherichia coli (by the 'similar method' of the 1b enzyme)
How it was run: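 Patient-derived type 1a NS5B (C-terminal 47-aa deletion, His-tagged, E. coli-expressed) at 1.5 μg/ml was reacted with 5 μg/ml 3′UTR-containing substrate RNA, 50 μM ATP/GTP/CTP, 2 μM UTP plus [3H]UTP, pH 7.5, 25° C for 60 min. TCA-precipitated RNA radioactivity was counted; IC50 from ± compound.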

[2] = target: T2, HCV polymerase (NS5B) type 1b (Hepatitis C virus genotype 1b, UniProt P26663); experiment: Assay of enzyme (HCV polymerase) inhibitory activity, type 1b enzyme; type: biochemical, HCV BK strain (type 1b); conditions: HCV polymerase inhibitory activity (IC50), 1b, type 1b enzyme 0.5 μg/ml, 25° C., 60 min
T2 construct: a region encoding NS5B (J Virol 1991 March, 65(3), 1105-13, 544 amino acids after deletion of 47 amino acids on the C-terminal); 6xHis (C); made in house; host or cells: Escherichia coli
How it was run: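 NS5B from HCV BK strain (type 1b), C-terminal 47 aa deleted, C-terminal His6-tagged, E. coli-expressed, 0.5 μg/ml, with ~450 nt substrate RNA carrying the 3′ UTR (polyU, 3′X) at 5 μg/ml. Incubation 60 min at 25 °C with 50 μM ATP/GTP/CTP, 2 μM UTP plus [3H]UTP, pH 7.5 Tris.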

SMILES: CCC(F)(F)c1ccc(CNC(=O)[C@H]2CN(C(=O)Nc3nnc(C(C)(C)O)s3)CCN2S(=O)(=O)c2ccc(OC(F)(F)F)cc2)cc1 [Example 484, (R)-4-(4-trifluoromethoxy-benzenesulfonyl)-piperazine-1,3-dicarboxylic acid 3-[4-(1,1-difluoro-propyl)-benzylamide] 1-{[5-(1-hydroxy-1-methyl-ethyl)-[1,3,4]thiadiazol-2-yl]-amide}]
- pIC50 [1]: 6.00 to 7.00
- pIC50 [2]: > 7.00

SMILES: CCCc1ccc(CNC(=O)[C@H]2CN(c3cnc(C(=O)O)cn3)CCN2S(=O)(=O)c2ccc(CC)cc2)c(Cl)c1 [Example 485, (R)-3-(2-chloro-4-propyl-benzylcarbamoyl)-4-(4-ethyl-benzenesulfonyl)-3,4,5,6-tetrahydro-2H-[1,2′]bipyrazinyl-5′-carboxylic acid]
- pIC50 [1]: > 7.00
- pIC50 [2]: > 7.00

SMILES: CCCc1ccc(CNC(=O)[C@H]2CN(c3cc(C)c(C(=O)OC)nn3)CCN2S(=O)(=O)c2ccc(OC(F)(F)F)cc2)cc1 [Example 486, 4-methyl-6-[(R)-3-(4-propyl-benzylcarbamoyl)-4-(4-trifluoromethoxy-benzenesulfonyl)-piperazin-1-yl]-pyridazine-3-carboxylic acid methyl ester]
- pIC50 [1]: > 7.00
- pIC50 [2]: > 7.00

SMILES: CCCc1ccc(CNC(=O)[C@H]2CN(c3cc(C)c(C(=O)O)nn3)CCN2S(=O)(=O)c2ccc(OC(F)(F)F)cc2)cc1 [Example 487, 4-methyl-6-[(R)-3-(4-propyl-benzylcarbamoyl)-4-(4-trifluoromethoxy-benzenesulfonyl)-piperazin-1-yl]-pyridazine-3-carboxylic acid]
- pIC50 [1]: > 7.00
- pIC50 [2]: > 7.00

SMILES: CCC(F)(F)c1ccc(CNC(=O)[C@H]2CN(C(=O)Nc3nnc(C)s3)CCN2S(=O)(=O)c2ccc(OC(F)(F)F)cc2)cc1 [Example 488, (R)-4-(4-trifluoromethoxy-benzenesulfonyl)-piperazine-1,3-dicarboxylic acid 3-[4-(1,1-difluoro-propyl)-benzylamide] 1-[(5-methyl-[1,3,4]thiadiazol-2-yl)-amide]]
- pIC50 [1]: 6.00 to 7.00
- pIC50 [2]: > 7.00

SMILES: CCC(F)(F)c1ccc(CNC(=O)[C@H]2CN(C(=O)Nc3nnc(C(F)(F)F)s3)CCN2S(=O)(=O)c2ccc(OC(F)(F)F)cc2)cc1 [Example 489, (R)-4-(4-trifluoromethoxy-benzenesulfonyl)-piperazine-1,3-dicarboxylic acid 3-[4-(1,1-difluoro-propyl)-benzylamide] 1-[(5-trifluoromethyl-[1,3,4]thiadiazol-2-yl)-amide]]
- pIC50 [1]: < 6.00
- pIC50 [2]: < 6.00

SMILES: CCC(F)(F)c1ccc(CNC(=O)[C@H]2CN(C(=O)Nc3ccnc(OC)c3)CCN2S(=O)(=O)c2ccc(OC(F)(F)F)cc2)cc1 [Example 490, (R)-4-(4-trifluoromethoxy-benzenesulfonyl)-piperazine-1,3-dicarboxylic acid 3-[4-(1,1-difluoro-propyl)-benzylamide] 1-[(2-methoxy-pyridin-4-yl)-amide]]
- pIC50 [1]: > 7.00
- pIC50 [2]: 6.00 to 7.00

SMILES: CCC(F)(F)c1ccc(CNC(=O)[C@H]2CN(C(=O)Nc3ccnc(C(=O)OC(C)(C)C)c3)CCN2S(=O)(=O)c2ccc(OC(F)(F)F)cc2)cc1 [Example 491, 4-{[(R)-3-[4-(1,1-difluoro-propyl)-benzylcarbamoyl]-4-(4-trifluoromethoxy-benzenesulfonyl)-piperazine-1-carbonyl]-amino}-pyridine-2-carboxylic acid tert-butyl ester]
- pIC50 [1]: > 7.00
- pIC50 [2]: > 7.00

SMILES: CC(=O)N1CCN(S(=O)(=O)c2ccc(C(C)C)cc2)[C@@H](C(=O)NCc2ccc(-c3csnn3)cc2)C1 [Example 492, (R)-4-acetyl-1-(4-isopropyl-benzenesulfonyl)-piperazine-2-carboxylic acid 4-[1,2,3]thiadiazol-4-yl-benzylamide]
- pIC50 [1]: < 6.00
- pIC50 [2]: 6.00 to 7.00

SMILES: CC(C)c1ccc(CNC(=O)[C@H]2CN(c3cnn(CC(=O)O)c3)CCN2S(=O)(=O)c2ccc(OC(F)(F)F)cc2)cc1 [Example 493, {4-[(R)-3-(4-isopropyl-benzylcarbamoyl)-4-(4-trifluoromethoxy-benzenesulfonyl)-piperazin-1-yl]-pyrazol-1-yl}-acetic acid]
- pIC50 [1]: 6.00 to 7.00
- pIC50 [2]: 6.00 to 7.00

SMILES: CCCc1ccc(CNC(=O)[C@H]2CN(c3cc(C)c(C(N)=O)nn3)CCN2S(=O)(=O)c2ccc(OC(F)(F)F)cc2)cc1 [Example 494, 4-methyl-6-[(R)-3-(4-propyl-benzylcarbamoyl)-4-(4-trifluoromethoxy-benzenesulfonyl)-piperazin-1-yl]-pyridazine-3-carboxylic acid amide]
- pIC50 [1]: > 7.00
- pIC50 [2]: > 7.00

SMILES: CCC(F)(F)c1ccc(CNC(=O)[C@H]2CN(C(=O)Nc3nnc(C(=O)N4CC[C@@H](O)C4)s3)CCN2S(=O)(=O)c2ccc(OC(F)(F)F)cc2)cc1 [Example 495, (R)-4-(4-trifluoromethoxy-benzenesulfonyl)-piperazine-1,3-dicarboxylic acid 3-[4-(1,1-difluoro-propyl)-benzylamide] 1-{[5-((R)-3-hydroxy-pyrrolidine-1-carbonyl)-[1,3,4]thiadiazol-2-yl]-amide}]
- pIC50 [1]: < 6.00
- pIC50 [2]: 6.00 to 7.00

SMILES: CCC(F)(F)c1ccc(CNC(=O)[C@H]2CN(C(=O)Nc3nnc(C(=O)N4CCC(O)CC4)s3)CCN2S(=O)(=O)c2ccc(OC(F)(F)F)cc2)cc1 [Example 496, (R)-4-(4-trifluoromethoxy-benzenesulfonyl)-piperazine-1,3-dicarboxylic acid 3-[4-(1,1-difluoro-propyl)-benzylamide] 1-{[5-(4-hydroxy-piperidine-1-carbonyl)-[1,3,4]thiadiazol-2-yl]-amide}]
- pIC50 [1]: < 6.00
- pIC50 [2]: < 6.00

SMILES: CCC(F)(F)c1ccc(CNC(=O)[C@H]2CN(C(=O)Nc3nnc(C(=O)N4CCOCC4)s3)CCN2S(=O)(=O)c2ccc(OC(F)(F)F)cc2)cc1 [Example 497, (R)-4-(4-trifluoromethoxy-benzenesulfonyl)-piperazine-1,3-dicarboxylic acid 3-[4-(1,1-difluoro-propyl)-benzylamide] 1-{[5-(morpholine-4-carbonyl)-[1,3,4]thiadiazol-2-yl]-amide}]
- pIC50 [1]: < 6.00
- pIC50 [2]: < 6.00

SMILES: CCC(F)(F)c1ccc(CNC(=O)[C@H]2CN(C(=O)Cc3cn(C)cn3)CCN2S(=O)(=O)c2ccc(OC(F)(F)F)cc2)cc1 [Example 498, (R)-4-[2-(1-methyl-1H-imidazol-4-yl)-acetyl]-1-(4-trifluoromethoxy-benzenesulfonyl)-piperazine-2-carboxylic acid 4-(1,1-difluoro-propyl)-benzylamide]
- pIC50 [1]: 6.00 to 7.00
- pIC50 [2]: 6.00 to 7.00

SMILES: CCCc1ccc(CNC(=O)[C@H]2CN(c3nc(C)c(C(=O)O)s3)CCN2S(=O)(=O)c2ccc(OC(F)(F)F)c(CCC)c2)cc1 [Example 499, 4-methyl-2-[(R)-3-(4-propyl-benzylcarbamoyl)-4-(3-propyl-4-trifluoromethoxy-benzenesulfonyl)-piperazin-1-yl]-thiazole-5-carboxylic acid]
- pIC50 [1]: > 7.00
- pIC50 [2]: > 7.00

SMILES: CC(C)(C)c1ccc(CNC(=O)[C@H]2CN(C(=O)Cc3ccncc3)CCN2S(=O)(=O)c2ccc(OC(F)(F)F)cc2)cc1 [Example 500, (R)-4-(2-pyridin-4-yl-acetyl)-1-(4-trifluoromethoxy-benzenesulfonyl)-piperazine-2-carboxylic acid 4-tert-butyl-benzylamide]
- pIC50 [1]: > 7.00
- pIC50 [2]: > 7.00

SMILES: CC(C)(C)c1ccc(CNC(=O)[C@H]2CN(c3cnc(C(=O)O)cn3)CCN2S(=O)(=O)c2ccc(OC(F)(F)F)cc2)cc1 [Example 501, (R)-3-(4-tert-butyl-benzylcarbamoyl)-4-(4-trifluoromethoxy-benzenesulfonyl)-3,4,5,6-tetrahydro-2H-[1,2′]bipyrazinyl-5′-carboxylic acid]
- pIC50 [1]: > 7.00
- pIC50 [2]: > 7.00

SMILES: CCC(F)(F)c1ccc(CNC(=O)[C@H]2CN(C(=O)Nc3ccnc(C(=O)O)c3)CCN2S(=O)(=O)c2ccc(OC(F)(F)F)cc2)cc1 [Example 502, 4-{[(R)-3-[4-(1,1-difluoro-propyl)-benzylcarbamoyl]-4-(4-trifluoromethoxy-benzenesulfonyl)-piperazine-1-carbonyl]-amino}-pyridine-2-carboxylic acid]
- pIC50 [1]: 6.00 to 7.00
- pIC50 [2]: 6.00 to 7.00

SMILES: CCC(F)(F)c1ccc(CNC(=O)[C@H]2CN(C(=O)Nc3ccnc(C(N)=O)c3)CCN2S(=O)(=O)c2ccc(OC(F)(F)F)cc2)cc1 [Example 503, (R)-4-(4-trifluoromethoxy-benzenesulfonyl)-piperazine-1,3-dicarboxylic acid 1-[(2-carbamoyl-pyridin-4-yl)-amide] 3-[4-(1,1-difluoro-propyl)-benzylamide]]
- pIC50 [1]: 6.00 to 7.00
- pIC50 [2]: > 7.00

SMILES: CCC(F)(F)c1ccc(CNC(=O)[C@H]2CN(C(=O)Nc3ccnc(C(=O)N(C)C)c3)CCN2S(=O)(=O)c2ccc(OC(F)(F)F)cc2)cc1 [Example 504, (R)-4-(4-trifluoromethoxy-benzenesulfonyl)-piperazine-1,3-dicarboxylic acid 3-[4-(1,1-difluoro-propyl)-benzylamide] 1-[(2-dimethylcarbamoyl-pyridin-4-yl)-amide]]
- pIC50 [1]: > 7.00
- pIC50 [2]: > 7.00

Reference: patent publication US8017612B2, “Piperazine compound and use thereof as a HCV polymerase inhibitor” (priority 2006, dated 2011)
